Measurements taken from patent US8835622B2, “Expression cassettes for seed-specific expression in plants” (Bayer BioScience N.V., priority 2008, dated 2014).
“Also recorded” adds a separate entry of the source. Like-named read-outs stand apart in the source and are kept apart here.

System: CYP704A2
Experiment: Enzyme activity and substrate specificity of recombinant CYP704A2 (microsomes from yeast, radiolabeled substrates, TLC and GC/MS of metabolites)
Type: biochemical, Arabidopsis thaliana
Details: for Product (nmole/min/nmole P450) / % of metabolisation: microsomes from yeast expressing CYP704A2, 100 μM radiolabeled substrate, 78 pmoles of CYP704A2, TLC; for Product (nmole/min/nmole P450) / % of metabolisation / substrate of CYP704A2 / relative rate of metabolism (in words): 20 min at 27° C.; for substrate of CYP704A2 / relative rate of metabolism (in words): 100 μM 14C radiolabelled substrate, with NADPH, TLC
Method: Heterologous expression of CYP704A2 in Yeast—For functional expression of the full length CYP704A2 clone, we used a yeast expression system specifically developed for the expression of P450 enzymes and consisting of plasmid pYeDP60 and Saccharomyces cerevisiae WAT11 strain (Pompon D. et al (1996) Methods Enzymol 272, 51-64). Yeast cultures were grown and CYP704A2 expression was induced as described in Pompon et al. (1996) see above from one isolated transformed colony. After growth, cells were harvested by centrifugation and manually broken with glass beads (0.45 mm diameter) in 50 mM Tris-HCl buffer (pH 7.5) containing 1 mM EDTA and 600 mM sorbitol. The homogenate was centrifuged for 10 min at 10,000 g. The resulting supernatant was centrifuged for 1 h at 100,000 g. The pellet consisting of microsomal membranes was resuspended in 50 mM Tris-HCl (pH 7.4), 1 mM EDTA and 30% (v/v) glycerol with a Potter-Elvehjem homogenizer and stored at −30° C. The volume of resuspension buffer is proportional to the weight of yeast pellet: microsomes extracted from 6 g of yeast are resuspended in 3 ml of buffer. All procedures for microsomal preparation were carried out at 0-4° C. The cytochrome P450 content was measured by the method of Omura and Sato (1964) J Biol Chem 239, 2370-2378.
Enzyme activities—radiolabeled substrates were dissolved in ethanol that was evaporated before the addition of microsomes into the glass tube. Resolubilization of the substrates was confirmed by measuring the radioactivity of the incubation media. Enzymatic activities of CYP704A2 from transformed yeast or Arabidopsis microsomes were determined by following the formation rate of metabolites. The standard assay (0.1 ml) contained 20 mM sodium phosphate (pH 7.4), 1 mM NADPH, and radiolabeled substrate (100 μM). The reaction was initiated by the addition of NADPH and was stopped by the addition of 20 μl acetonitrile (containing 0.2% acetic acid). The reaction products were resolved by TLC or HPLC as described below.
Thin layer chromatographic (TLC) methods—Incubation media were directly spotted on TLC plates. For separation of metabolites from residual substrate, TLC were developed with a mixture of diethyl ether/light petroleum (boiling point, 40-60° C.)/formic acid (50:50:1, v/v/v). The plates were scanned with a radioactivity detector (Raytest Rita Star). The area corresponding to the metabolites were scraped into counting vials and quantified by liquid scintillation, or they were eluted from the silica with 10 ml of diethyl ether, which was removed by evaporation. They were then subjected to GC/MS analysis.
GC/MS analysis—GC-MS analysis were carried out on a gas chromatograph (Agilent 6890 Series) equipped with a 30-m capillary column with an internal diameter of 0.25 mm and a film thickness of 0.25 μm (HP-5MS). The gas chromatograph was combined with a quadrupole mass selective detector (Agilent 5973N). Mass spectra were recorded at 70 eV and analysed as in Eglinton et al. (1968) Org. Mass. Spectrom 1, 593-611.
The enzyme activity and substrate specificity of CYP704A2 was subsequently evaluated. Thereto 20 μl of microsomal membranes overexpressing CYP704A2 (i.e. […]) were incubated 20 min at 27° C. with 100 μM of different ^14C radiolabelled fatty acids, alkanols or alkanes (purchased with American Radiolabeled Chemicals) together with 0.1 mM of NADPH, 0.4 Units of glucose-6-phosphate dehydrogenase, 3 mM glucose-6-phosphate in buffer NaPi 20 mM, pH 7.4 in a final reaction volume of 100 μl. The reaction was quenched by the addition of 20 μl of 20% of acetonitrile in water, and the incubation mix was spotted on silicagel 60F254 plates (Merck) for analysis. Plates were developed with a mix of ether/petroleum ether/formic acid 50/50/1 until the migration front reached the top of the plate. Dried plates were then scanned with a Raytest radioisotope thin-layer analyzer and radioactivity in the spots of interest was quantified in order to evaluate the substrate conversion. […]

| SMILES | Product (nmole/min/nmole P450) | substrate of CYP704A2 / relative rate of metabolism (in words) | further results |
| --- | --- | --- | --- |
| CCCCCCCCCCCCCCCC [C16 alkane, hexadecane] | 22.4 | – | products formed on incubation with CYP704A2 (TLC, GC/MS) (incubation with CYP704A2, products purified on TLC and identified by GC/MS): formation of three more polar compounds; % of metabolisation: 7.1% |
| CCCCCCCCCCCCCCCCO [C16-OH:0] | 6.5 | – | – |
| CCCCCCCCCCCCCCCC(=O)O [C16:0, palmitic acid] | 18.3 | preferentially metabolized | substrate of CYP704A2 / relative rate of metabolism (in words) (listed as palmitic acid): best substrate; rate of palmitic acid metabolism (concentration of palmitic acid of 100 μM): 18.3 nmol/min/nmole of P450; % of metabolisation: 14.3% |
| CCCCCCCCCCCCCC(=O)O [myristic acid] | – | not substrates | – |
| CCCCCC/C=C\CCCCCCCC(=O)O [palmitoleic acid] | – | not substrates | – |
| CCCCCCCCCCCCCCCCCC(=O)O [stearic acid] | – | not substrates; also recorded: not metabolized | – |

Further lines, with some results ahead:

| Product (nmole/min/nmole P450) | SMILES | substrate of CYP704A2 / relative rate of metabolism (in words) | further results |
| --- | --- | --- | --- |
| 12.6 | CCCCCCCCCCCCO [C12-OH:0, dodecanol] | – | products formed on incubation with CYP704A2 (TLC, GC/MS): formation of two more polar compounds |
| 7.3 | CCCCCCCCCCCC(=O)O [C12:0, lauric acid] | – | – |
